Measurements from article PMC7180572, “5-Alkylamino-N-phenylpyrazine-2-carboxamides: Design, Preparation, and Antimycobacterial Evaluation” (Molecules, 2020).
Converted amounts (≈) assume the structure as drawn. “And” between values parts separate entries of the source, which are not always exact repeats. Identical values can stand only once. Like-named read-outs stand apart in the source and are kept apart here.

Tests used:
[1] = test system: Pseudomonas aeruginosa ATCC 27853, CCM 3955; assay: Antibacterial microdilution broth method (EUCAST); format: cell-based; details: read-out: MIC PA
[2] = test system: Candida krusei ATCC 6258, CCM 8271; assay: Antifungal microdilution broth method (EUCAST); format: cell-based; details: Pichia kudriavzevii
[3] = test system: Acinetobacter baumanii ATCC 19606, DSM 30007; assay: Antibacterial microdilution broth method (EUCAST); format: cell-based; details: Acinetobacter baumannii
[4] = test system: Candida tropicalis ATCC 750, CCM 8264; assay: Antifungal microdilution broth method (EUCAST); format: cell-based; details: read-out: MIC CT
[5] = test system: Escherichia coli ATCC 25922, CCM 3954; assay: Antibacterial microdilution broth method (EUCAST); format: cell-based; details: read-out: MIC EC
[6] = test system: Absidia corymbifera CCM 8077 (Lichtheimia corymbifera); assay: Antifungal microdilution broth method (EUCAST); format: cell-based; details: read-out: MIC AC
[7] = test system: Enterococcus faecalis ATCC 29212, CCM 4224; assay: Antibacterial microdilution broth method (EUCAST); format: cell-based; details: read-out: MIC EF
[8] = test system: Aspergillus fumigatus ATCC 204305; assay: Antifungal microdilution broth method (EUCAST); format: cell-based; details: read-out: MIC AF
[9] = test system: Staphylococcus aureus spp.aureus ATCC 29213, CCM 4223; assay: Antibacterial microdilution broth method (EUCAST); format: cell-based; details: read-out: MIC SA
[10] = test system: Candida parapsilosis ATCC 22019, CCM 8260; assay: Antifungal microdilution broth method (EUCAST); format: cell-based; details: Lodderomyces parapsilosis
[11] = test system: HepG2 cells; assay: HepG2 cytotoxicity, CellTiter 96 (MTS) assay; format: cell-based, human; details: for IC50: Homo sapiens, HepG2, 24 h, read-out: HepG2 IC50; for SI, selectivity index: IC50 (HepG2)/MIC against Mtb H37Ra (in µM)
[12] = test system: Candida albicans ATCC 24433, CCM 8320; assay: Antifungal microdilution broth method (EUCAST); format: cell-based
[13] = test system: Staphylococcus epidermidis ATCC 12228, CCM 4418; assay: Antibacterial microdilution broth method (EUCAST); format: cell-based; details: read-out: MIC SE
[14] = test system: Mycobacterium smegmatis DSM 43465 (ATCC 607); assay: Microdilution broth, modified Microplate Alamar Blue Assay, whole cell growth inhibition; format: cell-based; details: Mycolicibacterium smegmatis, read-out: MIC Mycobacterium smegmatis
[15] = test system: Klebsiella pneumoniae ATCC 10031, CCM 4415; assay: Antibacterial microdilution broth method (EUCAST)
[16] = test system: Trichophyton interdigitale ATCC 9533, CCM 8377; assay: Antifungal microdilution broth method (EUCAST); format: cell-based; details: read-out: MIC TI
[17] = test system: Mycobacterium tuberculosis H37Ra ITM-M006710 (ATCC 9431); assay: Microdilution broth, modified Microplate Alamar Blue Assay, whole cell growth inhibition; format: cell-based; details: Mycobacterium tuberculosis, read-out: MIC Mtb H37Ra
[18] = test system: Staphylococcus aureus methicillin resistant ATCC 43300, CCM 4750; assay: microbe, parasite or virus in culture; format: cell-based; details: ATCC 43300 / CCM 4750 / MRSA, read-out: MIC MRSA
[19] = test system: Mycobacterium aurum DSM 43999 (ATCC 23366); assay: Microdilution broth, modified Microplate Alamar Blue Assay, whole cell growth inhibition; format: cell-based; details: Mycolicibacterium aurum, read-out: MIC Mycobacterium aurum
[20] = test system: Aspergillus flavus CCM 8363; assay: Antifungal microdilution broth method (EUCAST); format: cell-based; details: read-out: MIC AFla
[21] = in vitro, Middlebrook 7H9 broth, resazurin

SMILES: CCCCNc1cnc(C(=O)Nc2cccc(C(F)(F)F)c2)cn1 [Compound 1b, 5-(Butylamino)-N-(3-(trifluoromethyl)phenyl)pyrazine-2-carboxamide]
- MIC ([1]; 72 h): > 500 µM
- MIC ([1]; 120 h): > 500 µM
- MIC ([2]; 24 h, read-out: MIC CK): > 125 µM
- MIC ([2]; 48 h, read-out: MIC CK): > 125 µM
- MIC ([3]; 24h): > 500 µM
- MIC ([3]; 48h): > 500 µM
- MIC ([4]; 24 h): > 125 µM
- MIC ([4]; 48 h): > 125 µM
- MIC ([5]; 24 h): > 500 µM
- MIC ([5]; 48 h): > 500 µM
- MIC ([6]; CCM8077, 24 h): > 125 µM
- MIC ([6]; CCM8077, 48 h): > 125 µM
- MIC ([7]; 24 h): > 500 µM
- MIC ([7]; 48 h): > 500 µM
- MIC ([8]; ATCC204305, 24 h): > 125 µM
- MIC ([8]; ATCC204305, 48 h): > 125 µM
- MIC ([9]; 24 h): > 500 µM
- MIC ([9]; 48 h): > 500 µM
- MIC ([10]; 24 h, read-out: MIC CP): > 125 µM
- MIC ([10]; 48 h, read-out: MIC CP): > 125 µM
- melting point: 141 to 142 °C
- IC50 [11]: 126 µM
- SI, selectivity index [11]: 14 and 13.6
- MIC ([12]; 24 h, read-out: MIC CA): > 125 µM
- MIC ([12]; 48 h, read-out: MIC CA): > 125 µM
- MIC ([13]; 24 h): > 500 µM
- MIC ([13]; 48 h): > 500 µM
- MIC [14]: 3.13 µg/mL (≈ 9.25 µM)
- MIC KP ([15]; 24h): > 500 µM
- MIC KP ([15]; 48h): > 500 µM
- MIC ([16]; 72 h): > 125 µM
- MIC ([16]; 120 h): > 125 µM
- MIC ([17]; MIC converted to µM): 9.24 µM
- MIC [17, 21]: 3.13 µg/mL
- MIC ([18]; 24 h): > 500 µM
- MIC ([18]; 48 h): > 500 µM
- MIC [19]: 6.25 µg/mL (≈ 18.5 µM)
- MIC ([20]; CCM8363, 24 h): > 125 µM
- MIC ([20]; CCM8363, 48 h): > 125 µM

SMILES: CCCCCNc1cnc(C(=O)Nc2cccc(C(F)(F)F)c2)cn1 [Compound 1c, 5-(Pentylamino)-N-(3-(trifluoromethyl)phenyl)pyrazine-2-carboxamide]
- MIC ([1]; 72 h): > 500 µM
- MIC ([1]; 120 h): > 500 µM
- MIC ([2]; 24 h, read-out: MIC CK): 62.5 µM (≈ 22 µg/mL)
- MIC ([2]; 48 h, read-out: MIC CK): 62.5 µM (≈ 22 µg/mL)
- MIC ([2]; read-out: MIC CK (Candida krusei)): 62.5 µM (≈ 22 µg/mL)
- MIC ([3]; 24h): > 500 µM
- MIC ([3]; 48h): > 500 µM
- MIC ([4]; 24 h): > 125 µM
- MIC ([4]; 48 h): > 125 µM
- MIC ([5]; 24 h): > 500 µM
- MIC ([5]; 48 h): > 500 µM
- MIC ([6]; CCM8077, 24 h): > 125 µM
- MIC ([6]; CCM8077, 48 h): > 125 µM
- MIC ([7]; 24 h): > 500 µM
- MIC ([7]; 48 h): > 500 µM
- MIC ([8]; ATCC204305, 24 h): > 125 µM
- MIC ([8]; ATCC204305, 48 h): > 125 µM
- MIC ([9]; 24 h): > 500 µM
- MIC ([9]; 48 h): > 500 µM
- MIC ([10]; 24 h, read-out: MIC CP): 125 µM (≈ 44 µg/mL)
- MIC ([10]; 48 h, read-out: MIC CP): 125 µM (≈ 44 µg/mL)
- MIC ([10]; read-out: MIC CP (Candida parapsilosis)): 125 µM (≈ 44 µg/mL)
- melting point: 128 to 129 °C
- IC50 [11]: 18.9 µM
- SI, selectivity index [11]: 2.13
- MIC ([12]; 24 h, read-out: MIC CA): > 125 µM
- MIC ([12]; 48 h, read-out: MIC CA): > 125 µM
- MIC ([12]; read-out: MIC CA (Candida albicans)): > 125 µM
- MIC ([13]; 24 h): > 500 µM
- MIC ([13]; 48 h): > 500 µM
- MIC [14]: 1.56 µg/mL (≈ 4.43 µM)
- MIC KP ([15]; 24h): > 500 µM
- MIC KP ([15]; 48h): > 500 µM
- MIC ([16]; 72 h): > 125 µM
- MIC ([16]; 120 h): > 125 µM
- MIC [17, 21]: 3.13 µg/mL
- MIC ([18]; 24 h): > 500 µM
- MIC ([18]; 48 h): > 500 µM
- MIC [19]: 3.13 µg/mL (≈ 8.88 µM)
- MIC ([20]; CCM8363, 24 h): > 125 µM
- MIC ([20]; CCM8363, 48 h): > 125 µM

SMILES: CCCCCCNc1cnc(C(=O)Nc2cccc(C(F)(F)F)c2)cn1 [Compound 1d, 5-(Hexylamino)-N-(3-(trifluoromethyl)phenyl)pyrazine-2-carboxamide]
- MIC ([1]; 72 h): > 500 µM
- MIC ([1]; 120 h): > 500 µM
- MIC ([2]; 24 h, read-out: MIC CK): > 500 µM
- MIC ([2]; 48 h, read-out: MIC CK): > 500 µM
- MIC ([3]; 24h): > 500 µM
- MIC ([3]; 48h): > 500 µM
- MIC ([4]; 24 h): > 500 µM
- MIC ([4]; 48 h): > 500 µM
- MIC ([5]; 24 h): > 500 µM
- MIC ([5]; 48 h): > 500 µM
- MIC ([6]; CCM8077, 24 h): > 500 µM
- MIC ([6]; CCM8077, 48 h): > 500 µM
- MIC ([7]; 24 h): > 500 µM
- MIC ([7]; 48 h): > 500 µM
- MIC ([8]; ATCC204305, 24 h): > 500 µM
- MIC ([8]; ATCC204305, 48 h): > 500 µM
- MIC ([9]; 24 h): > 500 µM
- MIC ([9]; 48 h): > 500 µM
- MIC ([10]; 24 h, read-out: MIC CP): > 500 µM
- MIC ([10]; 48 h, read-out: MIC CP): > 500 µM
- melting point: 148 to 149 °C
- IC50 [11]: > 25 µM
- MIC ([12]; 24 h, read-out: MIC CA): > 500 µM
- MIC ([12]; 48 h, read-out: MIC CA): > 500 µM
- MIC ([13]; 24 h): > 500 µM
- MIC ([13]; 48 h): > 500 µM
- MIC [14]: ≥ 500 µg/mL
- MIC KP ([15]; 24h): > 500 µM
- MIC KP ([15]; 48h): > 500 µM
- MIC ([16]; 72 h): > 500 µM
- MIC ([16]; 120 h): > 500 µM
- MIC [17, 21]: ≥ 500 µg/mL
- MIC ([18]; 24 h): > 500 µM
- MIC ([18]; 48 h): > 500 µM
- MIC [19]: 25 µg/mL (≈ 68.2 µM)
- MIC ([20]; CCM8363, 24 h): > 500 µM
- MIC ([20]; CCM8363, 48 h): > 500 µM

SMILES: CCCCCCCNc1cnc(C(=O)Nc2cccc(C(F)(F)F)c2)cn1 [Compound 1e, 5-(Heptylamino)-N-(3-(trifluoromethyl)phenyl)pyrazine-2-carboxamide]
- MIC ([1]; 72 h): > 500 µM
- MIC ([1]; 120 h): > 500 µM
- MIC ([2]; 24 h, read-out: MIC CK): > 500 µM
- MIC ([2]; 48 h, read-out: MIC CK): > 500 µM
- MIC ([3]; 24h): > 500 µM
- MIC ([3]; 48h): > 500 µM
- MIC ([4]; 24 h): > 500 µM
- MIC ([4]; 48 h): > 500 µM
- MIC ([5]; 24 h): > 500 µM
- MIC ([5]; 48 h): > 500 µM
- MIC ([6]; CCM8077, 24 h): > 500 µM
- MIC ([6]; CCM8077, 48 h): > 500 µM
- MIC ([7]; 24 h): > 500 µM
- MIC ([7]; 48 h): > 500 µM
- MIC ([8]; ATCC204305, 24 h): > 500 µM
- MIC ([8]; ATCC204305, 48 h): > 500 µM
- MIC ([9]; 24 h): > 500 µM
- MIC ([9]; 48 h): > 500 µM
- MIC ([10]; 24 h, read-out: MIC CP): > 500 µM
- MIC ([10]; 48 h, read-out: MIC CP): > 500 µM
- melting point: 148 to 149 °C
- IC50 [11]: 223 µM
- MIC ([12]; 24 h, read-out: MIC CA): > 500 µM
- MIC ([12]; 48 h, read-out: MIC CA): > 500 µM
- MIC ([13]; 24 h): > 500 µM
- MIC ([13]; 48 h): > 500 µM
- MIC [14]: ≥ 500 µg/mL
- MIC KP ([15]; 24h): > 500 µM
- MIC KP ([15]; 48h): > 500 µM
- MIC ([16]; 72 h): > 500 µM
- MIC ([16]; 120 h): > 500 µM
- MIC [17, 21]: ≥ 500 µg/mL
- MIC ([18]; 24 h): > 500 µM
- MIC ([18]; 48 h): > 500 µM
- MIC [19]: 62.5 µg/mL (≈ 164 µM)
- MIC ([20]; CCM8363, 24 h): > 500 µM
- MIC ([20]; CCM8363, 48 h): > 500 µM
